The values below come from publication PMC9775090, “Identification of Bioactive Peptides from Nannochloropsis oculata Using a Combination of Enzymatic Treatment, in Silico Analysis and Chemical Synthesis” (Biomolecules, 2022).

“Also recorded” adds a separate entry of the source. Like-named read-outs stand apart in the source and are kept apart here. Where no end group is shown, it is not given here.

Assay [1] relates to ovine recombinant COX-1. Description: Cyclooxygenase inhibition, cell free assay (COX-1). As to conditions: for COX-1 inhibition: assayed at 1 mg/mL, ovine recombinant COX-1. The assay is classed as biochemical. The protocol:
(§1) In vitro assays to determine COX inhibition were performed using cell free assays as described previously. The synthesised peptides were incubated independently with ovine recombinant COX-1 (Cayman Chemicals, Hamburg, Germany) or human recombinant COX-2 (Cayman Chemicals, Hamburg, Germany). The assay was carried out in accordance with the manufacturer’s instructions. Resveratrol (Merck, Dublin, Ireland) was used as a positive control.

The subject of assay [2] is human recombinant COX-2. As to the kind of experiment: Cyclooxygenase inhibition, cell free assay (COX-2). The assay is classed as biochemical. The conditions noted are these: for COX-2 inhibition: assayed at 1 mg/mL, human recombinant COX-2. As for the experimental part:
as §1

For assay [3], the target named is T1, Angiotensin-1-converting enzyme (ACE-1) (Homo sapiens, UniProt P12821).
T1 construct: purchased Tebu Bio (TebuBio Ltd., Peterborough, UK)
T1 sequence (P12821 30-1306): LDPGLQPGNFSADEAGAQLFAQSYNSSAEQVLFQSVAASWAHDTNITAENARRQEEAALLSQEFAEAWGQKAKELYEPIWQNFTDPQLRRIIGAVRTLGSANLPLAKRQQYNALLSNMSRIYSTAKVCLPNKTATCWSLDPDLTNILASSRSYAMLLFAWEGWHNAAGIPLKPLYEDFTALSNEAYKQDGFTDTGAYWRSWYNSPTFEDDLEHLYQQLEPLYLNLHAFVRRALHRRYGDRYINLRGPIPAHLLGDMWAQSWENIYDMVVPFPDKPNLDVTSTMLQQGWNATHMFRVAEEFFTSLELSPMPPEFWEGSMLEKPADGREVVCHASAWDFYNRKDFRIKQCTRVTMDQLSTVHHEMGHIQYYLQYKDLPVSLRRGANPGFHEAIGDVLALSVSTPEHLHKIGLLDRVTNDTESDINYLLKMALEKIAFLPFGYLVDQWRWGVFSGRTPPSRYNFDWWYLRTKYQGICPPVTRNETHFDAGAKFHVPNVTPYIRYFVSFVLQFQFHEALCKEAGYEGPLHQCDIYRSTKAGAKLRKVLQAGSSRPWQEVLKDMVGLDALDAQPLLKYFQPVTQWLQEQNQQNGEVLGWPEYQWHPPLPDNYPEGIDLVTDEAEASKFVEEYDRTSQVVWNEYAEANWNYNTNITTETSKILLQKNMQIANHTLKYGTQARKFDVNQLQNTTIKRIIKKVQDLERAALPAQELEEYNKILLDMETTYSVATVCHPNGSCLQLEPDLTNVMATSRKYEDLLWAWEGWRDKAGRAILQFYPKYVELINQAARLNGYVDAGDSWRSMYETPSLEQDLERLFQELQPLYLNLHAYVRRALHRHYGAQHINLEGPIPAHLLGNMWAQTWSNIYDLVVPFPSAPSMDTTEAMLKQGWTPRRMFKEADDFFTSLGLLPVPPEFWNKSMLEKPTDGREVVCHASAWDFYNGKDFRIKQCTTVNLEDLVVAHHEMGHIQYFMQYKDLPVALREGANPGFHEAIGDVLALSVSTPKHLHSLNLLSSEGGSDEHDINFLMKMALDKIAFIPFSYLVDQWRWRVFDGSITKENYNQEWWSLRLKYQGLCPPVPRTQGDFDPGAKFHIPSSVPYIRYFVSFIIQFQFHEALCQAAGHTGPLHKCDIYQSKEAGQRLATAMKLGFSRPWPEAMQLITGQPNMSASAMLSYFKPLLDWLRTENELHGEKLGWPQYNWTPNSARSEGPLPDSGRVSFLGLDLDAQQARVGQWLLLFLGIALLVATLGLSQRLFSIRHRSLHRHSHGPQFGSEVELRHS
Description: ACE-1 inhibition, ACE kit-WST 96-well colorimetric assay. The conditions noted are these: for Observed Bioactivity In Vitro (ACE-1): result in words; for % ACE-1 inhibition / inhibition at 1000 µg/mL: synthesised peptides assayed at 1 mg/mL, n = 3; for inhibition at 1000 µg/mL: read-out: % ACE-1 inhibition. The assay is classed as biochemical. As for the experimental part:
The ACE-I inhibitory activity was determined using a 96 well plate bioassay supplied by Tebu-Bio (TebuBio Ltd., Peterborough, UK) in accordance with the manufacturers’ instructions. Briefly, the enzyme working solution and indicator working solution were prepared according to the manufacturer’s instructions. […] Blanks were included. 20 µL of the substrate buffer was added to each well, followed by 20 µL of the enzyme working solution to experimental wells and blank one wells. The plate was incubated at 37 °C for 1 h. After incubation, 200 µL indicator working solution was added to each well, and the plate was incubated at room temperature for 10 min. […] Absorbance was measured using a plate reader at 450 nm. For IC50 determination, the ACE kit-WST was also used.

Assay [4] concerns Escherichia coli DSM 301. Description: Modified agar well diffusion assay, E. coli. The assay is classed as cell-based. As to conditions: 1 mg/mL in 30 µL well, 24 h. As for the experimental part: (§2) The antibacterial activity of synthesised peptides was determined using an overnight culture of the pathogenic bacteria in a modified agar well diffusion assay as described previously. A zone of inhibition around wells containing the peptides indicates antibacterial activity. Escherichia coli DSM 301 and Bacillus cereus DSM 31 were used as indicator pathogen strains. Ampicillin (Merck, Dublin, Ireland) and Cecropin P1 (Merck, Dublin Ireland) were used as positive control antibiotics and antimicrobial peptides. Positive controls or test peptides were incubated (concentration 1 mg/mL) in a well (30 µL capacity) on the agar plate which was seeded with the pathogenic strain at an overnight culture to media ratio of 100 µL: 500 mL (v:v). Plates were left at 4 °C for 4 h and subsequently incubated at the optimum culture temperature and conditions for the pathogen in question. After 24 h, zones of inhibition indicated the presence of antibacterial activity.

Assay [5] deals with Bacillus cereus DSM 31. Description: Modified agar well diffusion assay, B. cereus. In kind it is cell-based. The conditions noted are these: 1 mg/mL in 30 µL well, 24 h. The protocol: as §2
In assay [6] the test system is ACE-1. The conditions noted are these: cited from earlier work. As for the experimental part:
Limited studies exist concerning the use of Nannochloropsis sp. as a source of protein, protein hydrolysates or bioactive peptides. Recently, […] et al. […] Enzymatic treatment of biomass is a useful strategy for generation of bioactive peptide containing concentrates. […] These peptides were selected based on their Peptide Ranker scores and amino acid sequences. The ACE-1 and COX-1/COX-2 assays were performed as described previously described using commercially available kits from Cambridge BioSciences (Cambridge BioSciences, Cambridge, UK).

[7] abbreviates: peptides from pepsin treated Nannochloropsis oculata.

As to `Oc1ccc(/C=C/c2cc(O)cc(O)c2)cc1` [Resveratrol, reference compound], the COX-1 inhibition in assay [1] is 78.41 (±2.92) %. For the same compound, the COX-2 inhibition in assay [2] stood at 70.41%.

Consider AGDVGFDPLGF, for which, in assay [3], the “Observed Bioactivity In Vitro (ACE-1)” value is listed as “ACE-1 inhibitory”. Also, the “Antibacterial activity against E. coli (zone of inhibition)” value in assay [4] was “having antibacterial activity in vitro against E. coli; also recorded: produced a zone of inhibition; also recorded: Antibacterial activity against E. coli at a concentration of 1 mg/mL”. In assay [5], the “Antibacterial activity against B. cereus (zone of inhibition)” value is given as “not B. cereus”.

Consider GMNNLTP [GMNNLTP], for which the IC50 in assay [6] (setting [7]) is 123 µM.

Regarding “KGGGSGANGGRL [peptide identified in Nannochloropsis sp. xylanase permeate, chemically synthesised; spelt three ways]”, the “% ACE-1 inhibition” value in assay [3] (listed as KGGGGGANGGRL) is 35.81%.

Take “LVGADAHALGVICS [peptide corresponding to a transcriptor initiation protein from Porphyridium sp., chemically synthesised]”: the “Observed Bioactivity In Vitro (ACE-1)” value in assay [3] is listed as “ACE-1 inhibition”.

For Leu-Glu-Gln [LEQ], the half-maximal inhibitory concentration (IC50) in assay [6] (setting [7]) was 173 µM.

Consider Leu-Val-Thr-Val-Met, for which the concentration for half-maximal inhibition (IC50) in assay [6] (purified peptide from Alcalase hydrolysate) is 18 µM.

NKFPYTTQ [NKFPYTTQ]: the inhibition at 1000 µg/mL in assay [3] amounted to 76.8%.

For the compound “VVGAVGAADLL [peptide corresponding to HEAT repeat-containing protein 1 of Ectocarpus siliculosus, chemically synthesised]”, in assay [3], the “Observed Bioactivity In Vitro (ACE-1)” value is recorded as “ACE-1 inhibition” and the “% ACE-1 inhibition” value is listed as 25.73%.

With VYNKFPYTTQ [VYNKFPYTTQ], in assay [3], the inhibition at 1000 µg/mL worked out at 81.7%.

“YANDLLCMPI [peptide identified in Nannochloropsis sp. xylanase permeate, chemically synthesised]”: the COX-1 inhibition in assay [1] stood at 34.5%. In addition, in assay [1] (result in words), the “Observed Bioactivity In Vitro (COX-1)” value is “COX-1 and COX-2 inhibition”. For the same compound, in assay [2], the COX-2 inhibition is 47.65%. Further, the “Observed Bioactivity In Vitro (COX-2)” value in assay [2] (result in words) was “COX-1 and COX-2 inhibition”.
